Values after ≈ are worked out from the molar mass of the structure shown.
Legend:
[1] = Solubility of compound at pH 7; type: physicochemical; details: buffer
[2] = biological target: Choline/ethanolamine kinase (Homo sapiens, UniProt Q9Y259)
[3] = Metabolic stability in rat hepatocyte assessed as intrinsic clearance; type: ADME, tissue-based; details: hepatocytes, read-out: CLH
[4] = Metabolic stability in human liver microsomes assessed as intrinsic clearance; type: ADME, Microsome; details: read-out: CLH

Choline/ethanolamine kinase, sequence (Q9Y259 whole entry): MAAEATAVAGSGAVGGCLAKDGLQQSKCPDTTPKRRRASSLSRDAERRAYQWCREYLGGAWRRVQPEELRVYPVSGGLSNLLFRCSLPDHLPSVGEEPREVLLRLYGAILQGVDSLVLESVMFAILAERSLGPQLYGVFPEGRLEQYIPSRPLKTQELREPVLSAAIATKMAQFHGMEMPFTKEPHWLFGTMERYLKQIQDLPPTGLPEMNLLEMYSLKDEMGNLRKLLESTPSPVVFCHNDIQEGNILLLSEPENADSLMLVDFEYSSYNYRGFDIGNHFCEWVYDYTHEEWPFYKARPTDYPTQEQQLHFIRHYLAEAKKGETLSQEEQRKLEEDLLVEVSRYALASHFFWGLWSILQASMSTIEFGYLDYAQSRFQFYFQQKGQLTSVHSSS

SMILES | solubility [1] | IC50 [2] | CLint scaled [3] | CLint scaled [4]
COc1cccc2sc(NC(=O)[C@H]3CC[C@@H](n4cnc5c(N)nc(Cl)nc54)CC3)nc12 | 2 µM (≈ 0.916 µg/mL) |  |  | 
Nc1nc(Cl)nc2c1ncn2[C@H]1CC[C@@H](C(=O)Nc2nc3ccc(O)cc3s2)CC1 | 3 µM (≈ 1.33 µg/mL) |  |  | 
CS(=O)(=O)c1ccc(NC(=O)[C@H]2CC[C@@H](n3cnc4c(N)ncnc43)CC2)cc1 |  | > 10 µM |  | 
Nc1nc(Cl)nc2c1ncn2[C@H]1CC[C@@H](C(=O)Nc2nc3c(O)cccc3s2)CC1 | 4 µM (≈ 1.78 µg/mL) |  |  | 
NC(=O)Cc1cnc(NC(=O)[C@H]2CC[C@@H](n3cnc4c(N)nc(Cl)nc43)CC2)s1 | 97 µM (≈ 42.2 µg/mL) |  |  | 
Nc1nc(Cl)nc2c1ncn2[C@H]1CC[C@@H](C(=O)Nc2nc3c(s2)COCC3)CC1 | 4 µM (≈ 1.74 µg/mL) |  |  | 
Nc1nc(Cl)nc2c1ncn2[C@H]1CC[C@@H](C(=O)Nc2nc3c(s2)CS(=O)(=O)CC3)CC1 | 37 µM (≈ 17.8 µg/mL) |  |  | 
Cl.Nc1nc(Cl)nc2c1ncn2[C@H]1CC[C@@H](C(=O)Nc2nc3c(s2)CN(C2CC2)CC3)CC1 | 13 µM |  |  | 
Nc1nc(Cl)nc2c1ncn2[C@H]1CC[C@@H](C(=O)Nc2nc(C(F)(F)F)cs2)CC1 | 9 µM (≈ 4.01 µg/mL) |  |  | 
COc1cccc(NC(=O)[C@H]2CC[C@@H](n3cnc4c(N)nc(-c5ccc6cn[nH]c6c5)nc43)CC2)c1 |  | > 10 µM |  | 
CN1CCc2nc(NC(=O)[C@H]3CC[C@@H](n4cnc5c(N)nc(Cl)nc54)CC3)sc2C1 | 171 µM (≈ 76.4 µg/mL) |  | 49 mL/min/kg | 33 mL/min/kg
Nc1ncnc2c1ncn2[C@H]1CC[C@@H](C(=O)Nc2cccc(S(=O)(=O)C(F)(F)F)c2)CC1 |  | > 10 µM |  | 
CC(C)N1CCc2nc(NC(=O)[C@H]3CC[C@@H](n4cnc5c(N)nc(Cl)nc54)CC3)sc2C1 | 73 µM (≈ 34.7 µg/mL) |  |  | 
Nc1nc(Cl)nc2c1ncn2[C@H]1CC[C@@H](C(=O)Nc2nc3ccc(F)cc3s2)CC1 | 3 µM (≈ 1.34 µg/mL) |  |  | 
CC1(C)Cc2nc(NC(=O)[C@H]3CC[C@@H](n4cnc5c(N)nc(Cl)nc54)CC3)sc2C(C)(C)N1 | 119 µM (≈ 58.2 µg/mL) |  | 97 mL/min/kg | 78 mL/min/kg
COc1cccc(NC(=O)[C@H]2CC[C@@H](n3cnc4c(N)nc(N5CCN(C)CC5)nc43)CC2)c1 |  | > 10 µM |  | 
Cc1csc(NC(=O)[C@H]2CC[C@@H](n3cnc4c(N)nc(Cl)nc43)CC2)n1 | 15 µM (≈ 5.88 µg/mL) |  | 34 mL/min/kg | 12 mL/min/kg
CN1CCc2nc(NC(=O)[C@H]3CC[C@@H](n4cnc5c(N)nc(F)nc54)CC3)sc2C1 | 105 µM (≈ 45.2 µg/mL) |  | 22 mL/min/kg | 13 mL/min/kg
NC(=O)Cc1csc(NC(=O)[C@H]2CC[C@@H](n3cnc4c(N)nc(Cl)nc43)CC2)n1 | 6 µM (≈ 2.61 µg/mL) |  |  | 
NC(=O)c1ccc2nc(NC(=O)[C@H]3CC[C@@H](n4cnc5c(N)nc(Cl)nc54)CC3)sc2c1 | 3 µM (≈ 1.41 µg/mL) |  |  | 
Cc1csc(NC(=O)[C@H]2CC[C@@H](n3cnc4c(N)nc(F)nc43)CC2)n1 | 2 µM (≈ 0.751 µg/mL) |  | 34 mL/min/kg | 12 mL/min/kg
Nc1nc(Cl)nc2c1ncn2[C@H]1CC[C@@H](C(=O)Nc2nc3c(F)cc(F)cc3s2)CC1 | 1 µM (≈ 0.464 µg/mL) |  |  | 
Nc1nc(Cl)nc2c1ncn2[C@H]1CC[C@@H](C(=O)Nc2nc3c(s2)CNCC3)CC1 | 153 µM (≈ 66.2 µg/mL) |  |  | 
Nc1ncnc2c1ncn2[C@H]1CC[C@@H](C(=O)Nc2ccc(S(=O)(=O)C(F)(F)F)cc2)CC1 |  | > 10 µM |  | 
Cc1cnc(NC(=O)[C@H]2CC[C@@H](n3cnc4c(N)nc(Cl)nc43)CC2)s1 | 5 µM (≈ 1.96 µg/mL) |  |  | 
COc1ccc2nc(NC(=O)[C@H]3CC[C@@H](n4cnc5c(N)nc(Cl)nc54)CC3)sc2c1 | 1 µM (≈ 0.458 µg/mL) |  |  | 
NC(=O)Cc1ccc2nc(NC(=O)[C@H]3CC[C@@H](n4cnc5c(N)nc(Cl)nc54)CC3)sc2c1 | 2 µM (≈ 0.97 µg/mL) |  |  | 
CC1(C)Cc2nc(NC(=O)[C@H]3CC[C@@H](n4cnc5c(N)nc(F)nc54)CC3)sc2C(C)(C)N1 | 200 µM (≈ 94.5 µg/mL) |  | 84 mL/min/kg | 56 mL/min/kg
COc1cccc(NC(=O)[C@H]2CC[C@@H](n3cnc4c(N)nc(-c5ccc6[nH]ncc6c5)nc43)CC2)c1 |  | > 10 µM |  | 
Nc1nc(Cl)nc2c1ncn2[C@H]1CC[C@@H](C(=O)Nc2nc(-c3ccccc3)cs2)CC1 | 5 µM (≈ 2.27 µg/mL) |  |  | 

From ChEMBL document CHEMBL5029157, “Identification of unprecedented ATP-competitive choline kinase inhibitors” (Bioorg Med Chem Lett, 2021)
